System: male Sprague Dawley rats
Test: Circadian courses of activity, feeding and drinking behaviour; body weight, food and fluid consumption during chronic administration
Format: in vivo, rat
Conditions: vs vehicle
Description: Example 130b as hydrochloride salt was dissolved in tap water in concentrations of 0.03, 0.1 and 0.3 mg/ml. Assuming a daily fluid intake of approx. 30 ml per animal (animal's weight: approx. 300 g), these concentrations should result in doses of approx. 3, 10 and 30 mg/kg/day. The solutions were prepared freshly every day. During chronic administration, solution offer was limited to 40 ml per day for each animal.
Imipramine was dissolved 0.5% Natrosol and administered once daily i.p. for 8 days (test group TG 11, see below) with a dose of 15 mg/kg/day in a volume of 1 ml/kg.
216 male Sprague Dawley rats. The animals were 6 weeks old at the start of the study. They were housed in groups of 4 animals (“acute animals”) or in single cages (“chronic animals”) at 12 h/12 h light/dark (start of the light phase at 2 a.m.), 20° C., 60% rH. Animals were provided by Elevage Janvier, France.
During the 7 days lasting period of chronic compound administration, animals were kept singly. On the first day they were kept in single Macrolon home cages. On the next day they were transferred to activity monitoring cages and kept there for 3 days. For the following 3 days they returned to their home cages (single housing).
Animals received the test compound chronically via the drinking fluid. The reference compound Imipramine was given i.p. (one administration per day, one hour before the respective tests). Fluid supply was restricted to 40 ml per day for all test groups. On the first day of chronic test compound exposure, animals were kept singly in standard single home cages to enable an individual assessment of test compound intake. On the second day, animals were transferred to infrared monitoring cages for 3 days. Food and fluid offer were the same as in the home cage. Measuring rearing activity near fluid bottles and food grid enabled an assessment of the time structure of food and water (compound) consumption. Behavioural observation started one hour before the beginning of the dark phase (2 p.m.). After 22 hours, body weight, food and fluid consumption were measured. 2 hours later, the next recording started.
Raw data were provided as computer files accompanied by written protocol sheets. As the animals were still adapting to the environment and administration the time courses of the following parameters were calculated only for the last day of registration: • Food and fluid intake (time %) • Number of feeding and […] bouts • Meal pattern parameters reflecting e.g. the duration and recurrence of feeding and drinking bouts • Total distance travelled (cm/min) • Small movements (cm/min) • Distance travelled with rapid locomotion (cm/min) • Distance travelled with slow locomotion (cm/min) • Immobility (time %) • Use of available space (%) • Locomotor stereotypies (score, first hour of the dark phase only) • Rearing (time %) • Number of rearing acts (N) Feeding and Drinking Bouts and Bout-Related Analysis:
On the basis of high-resolution infrared beam recordings, feeding and drinking is identified by means of beam interruption in the upper frame near to the positions of food or water. Feeding or drinking acts are then defined as temporally contingent behavioural pattern separated from each other by intervals not longer than 0.5 seconds. Normally, several acts form a feeding or drinking bout. The intervals within a bout are definitely shorter than between subsequent bouts. A threshold interval can be set to distinguish between intra-bout and inter-bout intervals.
Stereotyped locomotion was assessed by means of statistical comparisons between the observed locomotor sequences (as described by the movement from one of the 4×4 subsquares to another) and a “random walk”. The comparison is performed at 5 different levels:
The coefficient of locomotor stereotypies (SC, in %) at each level has a value of SC=0 when there are no regularities within the movement pattern (random walk). […]

[1] = circadian registration, Imipramine 15 mg/kg/day i.p., Example 130b approx. 3, 10, 30 mg/kg/day
[2] = Imipramine 15 mg/kg/day i.p., Example 130b hydrochloride approx. 3, 10, 30 mg/kg/day via drinking fluid

NCc1c(-c2ccc(Cl)cc2Cl)ncn1Cc1ccsc1 [Example 130b, (4-(2,4-dichlorophenyl)-1-((thiophen-3-yl)methyl)-1H-imidazol-5-yl)methanamine]
cumulated number of drinking bouts (22 hours of measurement, Example 130b approx. 3, 10, 30 mg/kg/day): dose-dependently reached a lower total number
horizontal and vertical (locomotor) activity [1]: no statistically significant effects
time accessing food and water (fluid) [1]: did not differ
locomotor stereotypies (stereotypy index) (first hour of the dark phase, Imipramine: level 2, 3 and 4 stereotypies, Example 130b: usage of available space or stereotypy index): no statistically significant effects
body weight (gain) [2]: not affected
fluid intake [2]: dose-dependently led to a reduction
food intake [2]: not affected
